The values below come from PMC11368658 (Molecular oral microbiology, 2024).

One assay concerns the target TDE1909 (CdaA) (Treponema denticola, UniProt Q73LF5). The format is biochemical. As to conditions: 150 µM ATP, 5 µM enzyme, 10 mM MnCl2, pH 7.5, 37 °C, 1-4 hr.
A further assay has as its target TDE0027 (DhhA) (Treponema denticola, UniProt Q73RQ8). As to the kind of experiment: absorbance at […] nm. The format is biochemical. As to conditions: MnCl2 buffer, 30 min.
A further assay deals with T1, TDE0087 (TrkA) (Treponema denticola, UniProt Q73RK1).
T1 sequence (Q73RK1 1-466): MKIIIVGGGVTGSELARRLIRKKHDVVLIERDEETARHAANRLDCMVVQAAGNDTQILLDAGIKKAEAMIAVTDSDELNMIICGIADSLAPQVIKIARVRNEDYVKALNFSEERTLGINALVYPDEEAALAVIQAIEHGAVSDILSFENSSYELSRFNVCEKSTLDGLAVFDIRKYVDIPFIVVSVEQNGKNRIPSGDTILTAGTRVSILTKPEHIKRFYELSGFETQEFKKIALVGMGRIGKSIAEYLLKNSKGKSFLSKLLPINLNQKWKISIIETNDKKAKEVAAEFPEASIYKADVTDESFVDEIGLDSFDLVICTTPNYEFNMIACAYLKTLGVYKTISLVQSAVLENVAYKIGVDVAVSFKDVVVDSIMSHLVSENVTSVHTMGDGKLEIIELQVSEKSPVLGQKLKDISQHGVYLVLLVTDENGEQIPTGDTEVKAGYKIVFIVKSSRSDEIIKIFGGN
As to the kind of experiment: ELISA-type plate binding, immobilised protein, streptavidin-HRP. As to conditions: labelled compound (biotinylated c-di-AMP, 125 nM); 50 mM Tris-HCl pH 8.0, 750 mM KCl, 2.5 mM EDTA, 2 hr. In general terms: An ELISA detects its analyte on a solid surface through an enzyme-linked reagent.

For the molecule `Nc1ncnc2c1ncn2[C@@H]1O[C@H](COP(=O)(O)OP(=O)(O)OP(=O)(O)O)[C@@H](O)[C@H]1O` [ATP], on TDE1909 (CdaA), the “RP-HPLC of reaction products” value was “we observed that CdaA converted ATP to c-di-AMP while CdaR did not”.
As for `O=[N+]([O-])c1ccc(OP(=O)(O)Oc2ccc([N+](=O)[O-])cc2)cc1` [bis-pNPP], the “absorbance at 405 nm” value on TDE0027 (DhhA) is reported as “TDE0027 hydrolyzed bis-pNPP but not pNPP”.
Consider `Nc1ncnc2c1ncn2[C@@H]1O[C@@H]2COP(=O)(O)O[C@H]3[C@@H](O)[C@H](n4cnc5c(N)ncnc54)O[C@@H]3COP(=O)(O)O[C@H]2[C@H]1O` [c-di-AMP], for which the “ELISA-type plate binding, immobilised protein, streptavidin-HRP” value at TDE0087 (TrkA) is recorded as “TDE0087 bound c-di-AMP similarly to the CabP control”. Also, the “RP-HPLC of reaction products” value on TDE1909 (CdaA) is given as “we observed that CdaA converted ATP to c-di-AMP while CdaR did not”.
